Source: US12173002B2, “PRMT5 inhibitors and methods of use” (SHANGHAI APEIRON THERAPEUTICS COMPANY LIMITED, priority 2022, dated 2024)

Legend:
[1] = tested on: HCT-116 MTAP(−/−) deficient cells; test: Inhibitory activity on proliferation of HCT-116 MTAP(−/−) deficient cells (Cell-Titer Glo, 8 days); type: cell-based; conditions: Homo sapiens, HCT-116, 192 h, 8 days incubation
Experimental: Test 1: Compound's inhibitory activity on proliferation of HCT-116 MTAP(−/−) deficient cells. P Materials and Cells: HCT-116 MTAP(−/−) deficient cells obtained from Kyinno Bio (China); RPMI-1640 medium, fetal bovine serum, and penicillin-streptomycin purchased from Thermo Fisher Scientific (America); 384-well plates from PerkinElmer (America); Cell-Titer Glo assay kit from Promega (America).
Cell Culture: HCT116 MTAP(−/−) deficient cells were cultured in RPMI 1640 medium containing 10% fetal bovine serum and 1% penicillin-streptomycin at 37° C., 5% CO2. Only cells in logarithmic growth phase were used for experiments.
(§1) Cell Proliferation Inhibition Assay: The compound's inhibitory activity on HCT-116 MTAP(−/−) deficient cells was assessed using the Cell-Titer Glo assay kit. Adjusting cell concentration, 40 μL was seeded into a 384-well plate and cultured overnight at 37° C., 5% CO2. Each well received 40 nL of the compound, achieving concentrations from 0 to 10,000 nM (starting concentration 10,000 nM, 3-fold dilution, 10 points), with 0.1% DMSO. The cell plate was incubated for 8 days at 37° C., 5% CO2. Cell-Titer Glo reagent (40 μL) was added to measure cell viability.

[2] = tested on: HCT-116 MTAP wild-type cells; test: Inhibitory activity on proliferation of HCT-116 MTAP wild-type cells (Cell-Titer Glo, 8 days); type: cell-based; conditions: Homo sapiens, HCT-116, 192 h, 8 days incubation
Experimental: Test 2: Compound's inhibitory activity on proliferation of HCT-116 MTAP wild-type cells.
Materials and Cells: HCT-116 MTAP wild-type cells obtained from Kyinno Bio (China); RPMI-1640 medium, fetal bovine serum, and penicillin-streptomycin purchased from Thermo Fisher Scientific (America); 384-well plates from PerkinElmer (America); Cell-Titer Glo assay kit from Promega (America).
Cell Culture: HCT116 MTAP wild-type cells were cultured in RPMI 1640 medium containing 10% fetal bovine serum and 1% penicillin-streptomycin at 37° C., 5% CO2. Only cells in logarithmic growth phase were used for experiments.
as §1, with “MTAP wild-type” for “MTAP(−/−) deficient”

Compound | IC50 [1] | IC50 [2]
Nc1nc2ccc(C(=O)N(C3CC3)[C@@H]3COc4cc(Br)ccc43)cc2n2cncc12 (single isomer, unassigned) [Example 82] | 0.0529 µM | 1.92 µM
Nc1nc2ccc(C(=O)N(C3CC3)[C@H]3COc4cc(C(F)(F)F)ccc43)cc2n2cncc12 (single isomer, unassigned) [Example 83] | 2.64 µM | 4.7 µM
Nc1nc2cnc(C(=O)N(C3CC3)[C@H]3COc4cc(C(F)(F)F)ccc43)cc2n2cncc12 (single isomer, unassigned) [Example 87] | 9.03 µM | 10.8 µM
Nc1nc2cnc(C(=O)N(C3CC3)[C@@H]3COc4cc(C(F)(F)F)ccc43)cc2n2cncc12 (single isomer, unassigned) [Example 88] | 0.0241 µM | 1.85 µM
CN(C(=O)c1ccc2nc(N)c3cncn3c2c1)[C@H]1COc2nc(C(F)(F)F)ccc21 (single isomer, unassigned) [Example 89] | > 3 µM | > 10 µM
CN(C(=O)c1ccc2nc(N)c3cncn3c2c1)[C@@H]1COc2nc(C(F)(F)F)ccc21 (single isomer, unassigned) [Example 90] | 0.0364 µM | > 10 µM
N#Cc1ccc2c(c1)OC[C@@H]2N(C(=O)c1ccc2nc(N)c3cncn3c2c1)C1CC1 (single isomer, unassigned) [Example 91] | 2.18 µM | > 20 µM
N#Cc1ccc2c(c1)OC[C@H]2N(C(=O)c1ccc2nc(N)c3cncn3c2c1)C1CC1 (single isomer, unassigned) [Example 92] | 0.0466 µM | 4.75 µM
CN(C(=O)c1ccc2nc(N)c3cncn3c2c1)[C@H]1COCc2ccc(C(F)(F)F)cc21 (single isomer, unassigned) [Example 93] | > 3 µM | > 10 µM
CN(C(=O)c1ccc2nc(N)c3cncn3c2c1)[C@@H]1COCc2ccc(C(F)(F)F)cc21 (single isomer, unassigned) [Example 94] | 0.0808 µM | 5.17 µM
CN(C(=O)c1ccc2nc(N)c3cncn3c2c1)[C@H]1COc2cc(S(F)(F)(F)(F)F)ccc21 (single isomer, unassigned) [Example 103] | 0.931 µM | 6.26 µM
CN(C(=O)c1ccc2nc(N)c3cncn3c2c1)C1COCc2ccc(C(F)(F)F)cc21 (centres unmarked) [Example 8, 4-amino-N-methyl-N-(6-(trifluoromethyl)isochroman-4-yl) imidazo[1,5-a] quinoxaline-8-carboxamide] | 0.106 µM | 6.48 µM
CN(C(=O)c1cc2c(cc1C#N)nc(N)c1cncn12)[C@@H]1COc2cc(C(F)(F)F)ccc21 [Example 14, (S)-4-amino-7-cyano-N-methyl-N-(6-(trifluoromethyl)-2,3-dihydrobenzofuran-3-yl)imidazo[1,5-a] quinoxaline-8-carboxamide] | 0.0147 µM | 1.28 µM
CN(C(=O)c1cc2c(cc1Cl)nc(N)c1cncn12)[C@@H]1COc2cc(C(F)(F)F)ccc21 [Example 27, (S)-4-amino-7-chloro-N-methyl-N-(6-(trifluoromethyl)-2,3-dihydrobenzofuran-3-yl)imidazo[1,5-a]quinoxaline-8-carboxamide] | 0.0044 µM | 0.842 µM
CN(C(=O)c1cc2c(cc1F)nc(N)c1cncn12)[C@@H]1COc2cc(-c3cnn(C)c3)ccc21 [Example 34, (S)-4-amino-7-fluoro-N-methyl-N-(6-(1-methyl-1H-pyrazol-4-yl)-2,3-dihydrobenzofuran-3-yl)imidazo[1,5-a] quinoxaline-8-carboxamide] | 0.0296 µM | 6.57 µM
CN(C(=O)c1cc2c(cc1F)nc(N)c1cncn12)[C@@H]1COc2cc(S(C)(=O)=O)ccc21 [Example 38, (S)-4-amino-7-fluoro-N-methyl-N-(6-(methylsulfonyl)-2,3-dihydrobenzofuran-3-yl)imidazo[1,5-a] quinoxaline-8-carboxamide] | 0.03 µM | 4.06 µM
CN(C(=O)c1ccc2nc(N)c3cncn3c2c1)C1CSc2cc(C(F)(F)F)ccc21 (centres unmarked) [Example 43, 4-amino-N-methyl-N-(6-(trifluoromethyl)-2,3-dihydrobenzo[b]thiophen-3-yl)imidazo [1,5-a]quinoxaline-8-carboxamide] | 0.0224 µM | 2.99 µM
CN(C(=O)c1ccc2nc(N)c3cncn3c2c1)C1CCOCc2cc(C(F)(F)F)ccc21 (centres unmarked) [Example 44, 4-amino-N-methyl-N-(8-(trifluoromethyl)-1,3,4,5-tetrahydrobenzo[c]oxepin-5-yl) imidazo[1,5-a] quinoxaline-8-carboxamide] | 0.31 µM | > 10 µM
CN(C(=O)c1ccc2nc(N)c3cncn3c2c1)[C@@H]1COc2cc(Cl)ccc21 [Example 70, (S)-4-amino-N-(6-chloro-2,3-dihydrobenzofuran-3-yl)-N-methylimidazo[1,5-a]quinoxaline-8-carboxamide] | 0.054 µM | 3.89 µM
Cc1ncc(-c2ccc3c(c2)OCC3N(C(=O)c2ccc3nc(N)c4cncn4c3c2)C2CC2)cn1 (centres unmarked) [Example 72, 4-amino-N-cyclopropyl-N-(6-(2-methylpyrimidin-5-yl)-2,3-dihydrobenzofuran-3-yl)imidazo[1,5-a]quinoxaline-8-carboxamide] | 0.117 µM | > 20 µM
Nc1nc2ccc(C(=O)N(C3CC3)C3COc4cc(Br)ccc43)cc2n2cncc12 (centres unmarked) [Example 74, 4-amino-N-(6-bromo-2,3-dihydrobenzofuran-3-yl)-N-cyclopro-pylimidazo[1,5-a] quinoxaline-8-carboxamide] | 0.148 µM | 5.99 µM
[2H]c1ncc2c(N)nc3ccc(C(=O)N(C)[C@@H]4COc5cc(C(F)(F)F)ccc54)cc3n12 [Example 78, (S)-4-amino-N-methyl-N-(6-(trifluoromethyl)-2,3-dihydrobenzofuran-3-yl)imidazo[1,5-a]quinoxaline-8-carboxamide-1-d] | 0.0071 µM | 2.07 µM
[2H]c1ncn2c1c(N)nc1ccc(C(=O)N(C)[C@@H]3COc4cc(C(F)(F)F)ccc43)cc12 [Example 79, (S)-4-amino-N-methyl-N-(6-(trifluoromethyl)-2,3-dihydrobenzo-furan-3-yl)imidazo [1,5-a]quinoxaline-8-carboxamide-3-d] | 0.0056 µM | 1.3 µM
Nc1nc2ccc(C(=O)N(C3CC3)[C@H]3COc4cc(Br)ccc43)cc2n2cncc12 [Example 81, (R)-4-amino-N-(6-bromo-2,3-dihydrobenzofuran-3-yl)-N-cyclopropylimidazo[1,5-a]quinoxaline-8-carboxamide] | 1.79 µM | 2.36 µM
C[C@@H]1OC[C@@H](N(C)C(=O)c2ccc3nc(N)c4cncn4c3c2)c2ccc(C(F)(F)F)cc21 [Example 105, 4-amino-N-methyl-N-((1S,4S)-1-methyl-7-(trifluoromethyl)isoch-roman-4-yl)imidazo [1,5-a]quinoxaline-8-carboxamide] | 0.0661 µM | 2.19 µM
CN(C(=O)c1cc2c(cc1F)nc(N)c1cncn12)[C@@H]1CCOc2cc(-c3cnn(C(F)(F)F)c3)ccc21 [Example 113, (R)-4-amino-7-fluoro-N-methyl-N-(7-(1-(trifluoromethyl)-1H-pyrazol-4-yl)chroman-4-yl) imidazo[1,5-a] quinoxaline-8-carboxamide] | 0.0881 µM | > 10 µM
CN(C(=O)c1cc2c(cc1F)nc(N)c1cncn12)[C@H]1COc2cc(C(F)(F)F)ccc21 [Example 120, (R)-4-amino-7-fluoro-N-methyl-N-(6-(trifluoromethyl)-2,3-dihydrobenzofuran-3-yl)imidazo[1,5-a]quinoxaline-8-carboxamide] | 0.9 µM | > 10 µM
CN(C(=O)c1ccc2nc(N)c3cncn3c2c1)[C@@H]1CSc2cc(S(=O)(=O)C3CC3)ccc21 [Example 133, (S)-4-amino-N-(6-(cyclopropylsulfonyl)-2,3-dihydrobenzo[b]thiophen-3-yl)-N-methylimidazo[1,5-a] quinoxaline-8-carboxamide] | 0.0714 µM | > 10 µM
